Laboratory results: patent US9968649B2, “Vasopressin formulations for use in treatment of hypotension” (Par Pharmaceutical, Inc., priority 2015, dated 2018)
Where “and” joins values, the source holds several entries; their conditions need not be identical. Identical values can stand only once. Like-named read-outs stand apart in the source and are kept apart here.

Columns and labels:
[1] = Investigation of pH: vasopressin stability by HPLC after 60° C. for one week (Example 2); type: physicochemical; details: 10 mM citrate buffer in isotonic saline
Protocol: To determine a possible pH for a vasopressin formulation with good shelf life, vasopressin formulations were prepared in 10 mM citrate buffer diluted in isotonic saline across a range of pH. Stability was assessed via HPLC as in EXAMPLE 1 after incubation of the formulations at 60° C. for one week. FIG. 9 illustrates the results of the experiment. […] At pH 3.5, the percent label claim (% LC) of vasopressin was highest, and the proportion of total impurities was lowest.

[2] = pH of stored samples (Example 8); type: physicochemical; details: inverted
Protocol: (§1) Experiments were also conducted on the same samples above over the course of the experiments to measure the amount of individual impurities in the samples, pH of the samples, chlorobutanol content, particulate matter, antimicrobial effectiveness, and bacterial endotoxin levels (TABLES 25-42). (NR=no reading; ND=not determined; UI=unidentified impurity).

[3] = Chlorobutanol content of stored samples (Example 8); type: physicochemical; details: inverted
Protocol: as §1

[4] = Particulate matter (USP) of stored samples (Example 8); type: physicochemical; details: inverted
Protocol: as §1

[5] = Effect of pH 3.5-4.5 on vasopressin formulations, four weeks at 25° C. or 40° C. (Example 9); type: physicochemical
Protocol: To test of effect of pH on vasopressin formulations, solutions containing 20 units/mL vasopressin, adjusted to pH 3.5, 3.6, 3.7, 3.8, 3.9, 4, 4.1, 4.2, 4.3, 4.4, or 4.5 with 10 mM acetate buffer, were prepared. One mL of each of the vasopressin formulations was then filled into 10 cc vials.
The vasopressin formulations were stored for four weeks at: (i) 25° C.; or (ii) 40° C., and the assay (% label claim; vasopressin remaining) and % total impurities after four weeks were measured using the methods described in EXAMPLE 1. FIGS. 11 and 12 below display the results of the experiments at 25° C. The results of the experiments at 40° C. are included in FIGS. 13 and 14.

[6] = type: physicochemical
[7] = tested on: Chinese hamster ovary (CHO) cell; assay: In vitro Chinese hamster ovary (CHO) cell chromosome aberration test; type: cell-based
[8] = tested on: patients with vasodilatory shock; details: cited from earlier work
[9] = tested on: septic shock and post-cardiotomy vasodilatory shock; details: seven studies in septic shock and eight studies in post-cardiotomy vasodilatory shock; cited from earlier work
[10] = cited from earlier work
[11] = cited from earlier work; remark: listed apart in the source
spermatozoa = details: mice; cited from earlier work
bacterial = assay: In vitro bacterial mutagenicity (Ames) test

With `NC(=O)CC[C@@H]1NC(=O)[C@H](Cc2ccccc2)NC(=O)[C@H](Cc2ccc(O)cc2)NC(=O)[C@@H](N)CSSC[C@@H](C(=O)N2CCC[C@H]2C(=O)N[C@@H](CCCN=C(N)N)C(=O)NCC(N)=O)NC(=O)[C@H](CC(N)=O)NC1=O` [Vasopressin, Cyclo (1-6) L-Cysteinyl-L-Tyrosyl-L-Phenylalanyl-L-Glutaminyl-L-Asparaginyl-L-Cysteinyl-L-Prolyl-L-Arginyl-L-Glycinamide] as the compound, how does the “pH at which the greatest level of stability was observed (highest % LC, lowest total impurities)” value [1] read?
The value was 3.5.

What about the pH ([2]; 5° C., 1 month) of the same compound?
Its pH is 3.5 and 3.6.

And the pH ([2]; 5° C., 2 months)?
The pH was 3.5 and 3.6.

What about the pH ([2]; 5° C., 3 months) of the same compound?
Its pH is 3.5 and 3.6.

What about the pH ([2]; 5° C., 6 months) of the same compound?
Its pH is 3.5 and 3.6.

What about the pH ([2]; 5° C., 9 months) of the same compound?
Its pH is 3.5 and 3.6.

And the pH ([2]; 5° C., 12 months)?
The pH was 3.5 and 3.6.

And the pH ([2]; 5° C., 18 months)?
Its pH is 3.8 and 3.6 and 3.5.

And the pH ([2]; 5° C., 24 months)?
Its pH is 3.5 and 3.6.

And the pH ([2]; 5° C., Initial)?
Its pH is 3.5 and 3.6.

And the pH ([2]; 40° C., 1 month)?
Its pH is 3.3.

What about the pH ([2]; 40° C., 2 months) of the same compound?
Its pH is 3.2.

And the pH ([2]; 40° C., 3 months)?
Its pH is 3.1.

What about the pH ([2]; 40° C., Initial) of the same compound?
Its pH is 3.5.

And the Chlorobutanol ([3]; 5° C., 1 month)?
The Chlorobutanol was 0.49% w/v and 0.48% w/v.

What about the Chlorobutanol ([3]; 5° C., 2 months) of the same compound?
The Chlorobutanol was 0.48% w/v and 0.47% w/v.

And the Chlorobutanol ([3]; 5° C., 3 months)?
The Chlorobutanol was 0.48% w/v and 0.47% w/v.

And the Chlorobutanol ([3]; 5° C., 6 months)?
The Chlorobutanol was 0.47% w/v and 0.48% w/v.

What about the Chlorobutanol ([3]; 5° C., 9 months) of the same compound?
Its Chlorobutanol is 0.48% w/v and 0.47% w/v.

And the Chlorobutanol ([3]; 5° C., 12 months)?
The Chlorobutanol was 0.48% w/v and 0.49% w/v.

What about the Chlorobutanol ([3]; 5° C., 18 months) of the same compound?
Its Chlorobutanol is 0.49% w/v and 0.48% w/v.

And the Chlorobutanol ([3]; 5° C., 24 months)?
Its Chlorobutanol is 0.49% w/v and 0.48% w/v.

And the Chlorobutanol ([3]; 5° C., Initial)?
The Chlorobutanol was 0.48% w/v and 0.47% w/v.

What about the Chlorobutanol ([3]; 40° C., 1 month) of the same compound?
Its Chlorobutanol is 0.48% w/v.

What about the Chlorobutanol ([3]; 40° C., 2 months) of the same compound?
Its Chlorobutanol is 0.50% w/v.

And the Chlorobutanol ([3]; 40° C., 3 months)?
Its Chlorobutanol is 0.47% w/v.

And the Chlorobutanol ([3]; 40° C., Initial)?
Its Chlorobutanol is 0.49% w/v.

What about the “Particulate Matter (USP) (≥10 μm)” value ([4]; 5° C., 1 month) of the same compound?
Its value is 1 and 2.

And the “Particulate Matter (USP) (≥25 μm)” value ([4]; 5° C., 1 month)?
Its value is 0.

And the “Particulate Matter (USP) (≥10 μm)” value ([4]; 5° C., 2 months)?
The value was 1.

What about the “Particulate Matter (USP) (≥25 μm)” value ([4]; 5° C., 2 months) of the same compound?
Its value is 0.

And the “Particulate Matter (USP) (≥10 μm)” value ([4]; 5° C., 3 months)?
Its value is 1 and 2.

What about the “Particulate Matter (USP) (≥25 μm)” value ([4]; 5° C., 3 months) of the same compound?
The value was 0.

And the “Particulate Matter (USP) (≥10 μm)” value ([4]; 5° C., 6 months)?
Its value is 2 and 1.

What about the “Particulate Matter (USP) (≥25 μm)” value ([4]; 5° C., 6 months) of the same compound?
The value was 0.

What about the “Particulate Matter (USP) (≥25 μm)” value ([4]; 5° C., 9 months) of the same compound?
The value was 0.

What about the “Particulate Matter (USP) (≥10 μm)” value ([4]; 5° C., 12 months) of the same compound?
Its value is 2.

And the “Particulate Matter (USP) (≥25 μm)” value ([4]; 5° C., 12 months)?
The value was 0.

What about the “Particulate Matter (USP) (≥25 μm)” value ([4]; 5° C., 18 months) of the same compound?
The value was 0.

And the “Particulate Matter (USP) (≥25 μm)” value ([4]; 5° C., 24 months)?
The value was 0.

What about the “Particulate Matter (USP) (≥25 μm)” value ([4]; 5° C., Initial) of the same compound?
The value was 0.

And the “Particulate Matter (USP) (≥10 μm)” value ([4]; 40° C., 1 month)?
Its value is 1.

And the “Particulate Matter (USP) (≥25 μm)” value ([4]; 40° C., 1 month)?
Its value is 0.

What about the “Particulate Matter (USP) (≥10 μm)” value ([4]; 40° C., 2 months) of the same compound?
Its value is 1.

What about the “Particulate Matter (USP) (≥25 μm)” value ([4]; 40° C., 2 months) of the same compound?
The value was 0.

What about the “Particulate Matter (USP) (≥10 μm)” value ([4]; 40° C., 3 months) of the same compound?
Its value is 1.

And the “Particulate Matter (USP) (≥25 μm)” value ([4]; 40° C., 3 months)?
The value was 0.

And the “Particulate Matter (USP) (≥10 μm)” value ([4]; 40° C., Initial)?
Its value is 1.

And the “Particulate Matter (USP) (≥25 μm)” value ([4]; 40° C., Initial)?
Its value is 0.

What about the “pH providing the highest stability” value ([5]; 25° C.) of the same compound?
The value was 3.7.

And the “pH with lowest level of impurities within pH 3.6 to 3.8” value ([5]; 25° C.)?
The value was 3.8.

What about the “pH providing the highest stability” value ([5]; 40° C.) of the same compound?
The value was 3.6.

And the “pH with lowest level of impurities within pH 3.6 to 3.8” value ([5]; 40° C.)?
The value was 3.8.

What about the “pH with lowest level of impurities within pH 3.6 to 3.8” value ([6]; pH 3.6) of the same compound?
Its value is 3.8.

What about the “pH with lowest level of impurities within pH 3.7 to 3.8” value ([6]; pH 3.7) of the same compound?
Its value is 3.8.

And the “CHO cell chromosome aberration test result” value [7]?
Its value is “negative”.

And the “time for pressor effect to fade” value ([8]; after stopping the infusion)?
The value was at most 20 min.

And the “time of peak pressor effect” value ([8]; infusion of exogenous vasopressin)?
Its value is at most 15 min.

What about the “hemodynamic effect at therapeutic doses” value ([8]; patients with vasodilatory shock) of the same compound?
Its value is “increases systemic vascular resistance and mean arterial blood pressure”.

What about the “tachyphylaxis or tolerance to the pressor effect” value ([8]; patients) of the same compound?
The value was “no evidence for tachyphylaxis or tolerance”.

What about the “systolic and mean blood pressure following administration” value [9] of the same compound?
The value was “Increases in systolic and mean blood pressure”.

And the “dose excreted unchanged in urine” value ([10]; human, in vivo)?
Its value is “about 6%”.

And the apparent half-life ([10]; infusion rates 0.01-0.1 units/minute)?
The apparent half-life was at most 10 min.

And the “increase of clearance of vasopressin in pregnancy” value ([11]; at term)?
Its value is “up to 5 fold”.

And the “clearance of vasopressin in pregnancy” value ([11]; first trimester)?
Its value is “only slightly increased”.

What about the “increase of clearance of vasopressin in pregnancy” value ([11]; third trimester) of the same compound?
The value was “about 4 fold”.

And the effect on spermatozoa (spermatozoa)?
Its effect on spermatozoa is “can have an effect on function and fertilizing ability of spermatozoa”.

What about the “bacterial mutagenicity (Ames) test result” value (bacterial) of the same compound?
Its value is “negative”.
